Consider 13 molecules from patent US6710044B2, “Technical field” (NeuroSearch A/S, priority 1996, dated 2004).

Data set [1] addresses benzodiazepine receptor sites (GABAA receptor complex). In words: In vitro inhibition of 3H-flunitrazepam (3H-FNM) binding, cerebral cortex membranes. The following applies: inhibition of specific binding of 3H-FNM (1 nM), rat cerebral cortex membranes, 40 min at 2° C. As to the method:
The affinity of various potential ligands for the benzodiazepine receptor sites can thus be evaluated by estimating the ability of test compounds to displace ^3H-flunitrazepam.
Tissue Preparation: Preparations are performed at 0-4° C. unless otherwise indicated.
Cerebral cortex from male Wistar rats (150-200 g) is homogenized for 5-10 sec in 20 ml Tris-HCl (30 mM, pH 7.4) using an Ultra-Turrax homogenizer. The suspension is centrifuged at 27,000×g for 15 min, and the pellet is washed three times with buffer (centrifuged at 27,000×g for 10 min). The washed pellet is homogenized in 20 ml of buffer and incubated on a water bath (37° C.) for 30 min to remove endogenous GABA and then centrifuged for 10 min at 27,000×g. The pellet is then homogenized in buffer and centrifuged for 10 min at 27,000×g. The final pellet is resuspended in 30 ml buffer and the preparation is frozen and stored at −20° C.
Assay: The membrane preparation is thawed and centrifuged at 2° C. for 10 min at 27,000×g. The pellet is washed twice with 20 ml 50 mM Tris-citrate, pH 7.1 using an Ultra-Turrax homogenizer and centrifuged for 10 min at 27,000×g. The final pellet is resuspended in 50 mM Tris-citrate, pH 7.1 (500 ml buffer per g of original tissue), and then used for binding assays. Aliquots of 0.5 ml tissue are added to 25 μl of test solution and 25 μl of ^3H-FNM (1 nM, final concentration), mixed and incubated for 40 min at 2° C. Non-specific binding is determined using clonazepam (1 μM, final concentration). After incubation the samples are added 5 ml of ice-cold buffer and poured directly onto Whatman GF/C glass fibre filters under suction and immediately washed with 5 ml ice-cold buffer. The amount of radioactivity on the filters is determined by conventional liquid scintillation counting. Specific binding is total binding minus non-specific binding.
The test value is calculated as the IC50 (the concentration (nM) of the test substance which inhibits the specific binding of ^3H—FNM by 50%).

As for `N#Cc1ccc2c(c1)ncn2-c1cccc(N2CCCC2)c1` [compound 3a2, 5-Cyano-1-(3-(1-pyrrolidinyl)phenyl)benzimidazole], the melting point – broadly, the temperature of the solid-liquid transition – fell in the range of 171 to 172 °C. The IC50 (usually the concentration at which inhibition is half-maximal) in data set [1] amounted to 41 nM.

`CN1CCCC(c2cccc(-n3cnc4cc(C=NO)ccc43)c2)C1` (centres unmarked) [compound 3b4, 5-Formyl-1-(3-(1-methyl-3-piperidinyl)phenyl)benzimidazole oxime] had a melting point of 214 to 218 °C. This molecule displayed a half-maximal inhibitory concentration (IC50) in data set [1] of 4 nM.

In turn, `CCON=C(C)c1ccc2c(c1)ncn2-c1cccc(C2CCCN(C)C2)c1.Cl` (centres unmarked) [compound 3f7, 5-acetyl-1-(3-(1-methylpiperidin-3-yl)phenyl)benzimidazole O-ethyl oxime hydrochloride] yielded a melting point of 112 to 114 °C. The IC50 in data set [1] was 18 nM.

Consider `OCCN1CCN(c2cccc(-n3cnc4cc(-c5ccoc5)ccc43)c2)CC1` [compound 3i3, 5-(3-Furanyl)-1-(3-(4-(2-hydroxyethyl)piperazin-1-yl)phenyl)benzimidazole], for which the melting point is 137 to 140 °C. The same molecule had an IC50 in data set [1] of 5 nM.

For the molecule `CCOC(=O)c1ccc2c(c1)ncn2-c1cccc(N2CCN(CC(=O)OC)CC2)c1.Cl` [compound 4a5, 5-(Ethoxycarbonyl)-1-(3-(4-(methoxycarbonylmethyl)piperazin-1-yl)phenyl)-benzimidazole, hydrochloride], the melting point lay within 185 to 186 °C. Besides, the IC50 in data set [1] is 50 nM.

In data set [1], `CN1CCCC(c2cccc(-n3cnc4cc(C(=O)OCc5cccnc5)ccc43)c2)C1` (centres unmarked) [compound 4h, 5-(3-Picolyloxycarbonyl)-1-(3-(1-methylpiperidin-3-yl)phenyl)benzimidazole] registered an IC50 of 80 nM.

Molecule `COC(=O)Cc1ccc2c(c1)ncn2-c1cccc(N2CCN(C)CC2)c1.Cl` [compound 4l1, 5-(Methoxycarbonylmethyl)-1-(3-(4-methylpiperazin-1-yl)phenyl)benzimidazole, hydrochloride] had a melting point of 140 to 142 °C. Moreover, in data set [1], the IC50 amounted to 25 nM.

Consider `CC(=O)c1ccc2c(c1)ncn2-c1cccc(C(=NOC(C)C)OCc2ccccn2)c1` [compound 5a3, 5-Acetyl-1-(3-(2-picolyloxycarbonyl)phenyl)benzimidazole O-i-propyl oxime], for which the melting point fell in the range of 104 to 106 °C.

Molecule `COC(=O)CON=C(C)c1ccc2c(c1)ncn2-c1cccc(N2CCN(CCO)CC2)c1` [compound 5c1, 5-Acetyl-1-(3-(4-(2-hydroxyethyl)piperazin-1-yl)phenyl)benzimidazole O-(methoxy-carbonylmethyl) oxime] returned a melting point of 117 to 119 °C. The molecule also had an IC50 in data set [1] of 19 nM.

For the molecule `CCON=C(CC1CCN(c2cccc(-n3cnc4cc(C(C)=O)ccc43)c2)CC1)OCC` [compound 5d2, 5-Acetyl-1-(3-(4-(ethoxycarbonylmethyl)piperidin-1-yl)phenyl)benzimidazole O-ethyl oxime], the melting point is 119 to 120 °C.

In turn, `CCOC(=O)c1cccc(-n2cnc3cc(-c4ccno4)ccc32)c1` [compound 6a2, 5-(5-Isoxazolyl)-1-(3-ethoxycarbonyl)phenyl benzimidazole] displayed a melting point of 156 to 157 °C. Further, the IC50 in data set [1] stood at 3 nM.

`O=C(OCc1ccccn1)c1cccc(-n2cnc3cc(-c4ccccc4)ccc32)c1` [compound 6b3, 5-Phenyl-1-(3-(2-picolyloxycarbonyl)phenyl)benzimidazole]: the melting point is 149 to 150 °C. In data set [1], this molecule gave an IC50 of 8 nM.

On to `CCOC(=O)C(=CN1CCN(c2cccc(-n3cnc4cc(-c5ccoc5)ccc43)c2)CC1)C(=O)OCC` [compound 6c6, 5-(3-Furanyl)-1-(3-(4-(2,2-bis(ethoxycarbonyl)ethenyl)piperazin-1-yl)phenyl)-benzimidazole], for which the melting point was in the range of 97 to 102 °C. For the same molecule, the IC50 in data set [1] came to 7 nM.
